Reference: a melting point compilation (Tetko et al.)

CC(N)(C(N)=O)c1ccccc1 (stereo not drawn)
melting point: 114 to 116 °C

COc1cc(OC)cc(N2CC(C(=O)O)CC2=O)c1 (stereo not drawn)
melting point: 125 to 127 °C

COCc1ccc(C(=O)O)cc1OC
melting point: 164 to 166 °C

COc1nc2ccccc2cc1/C=C/C(=O)O
melting point: 219 to 221 °C

O=C(O)CSc1ccsc1[N+](=O)[O-]
melting point: 196 to 198 °C

O=C(CCc1ccccc1)c1ccccc1
melting point: 69 to 71 °C

CC1(C)CCC(N)(C(N)=O)CC1
melting point: 149 to 151 °C

CCOC(=O)c1ccc(-c2ccc(C=O)o2)cc1
melting point: 110 to 112 °C

Cc1cccc(-c2noc(S)n2)c1
melting point: 119 to 121 °C

Cc1ccc(N)cc1NC(=O)c1ccccc1I
melting point: 190 to 192 °C

O=C1C=CC(=O)N1c1ccccc1Sc1ccccc1
melting point: 51 to 53 °C

O=C(O)Cc1ccc2c(c1)OCCO2
melting point: 54 to 56 °C

COc1ccc(S(N)(=O)=O)cc1C
melting point: 137 to 139 °C

CC(C)(C)OC(=O)NCc1nnc(S)o1
melting point: 106 to 108 °C

O=C(O)CCc1nc(-c2nnc[nH]2)no1
melting point: 246 to 248 °C

CCCCc1ccc(NC(=S)NN)cc1
melting point: 125 to 127 °C

O=Cc1cnc(-c2cccs2)s1
melting point: 113 to 115 °C

C#CCNc1nccs1
melting point: 65 to 67 °C

O=C1CCc2cc3c(cc21)OCCO3
melting point: 118 to 120 °C

CC(C)n1ncc2c(C(=O)O)cc(-c3ccco3)nc21
melting point: 275 to 277 °C

CC(C)c1ccc2cc(C(=O)O)[nH]c2c1
melting point: 132 to 134 °C

Nc1ccc(SCc2ccccc2)cn1
melting point: 94 to 96 °C

O=C(c1cc(Cl)c[nH]1)N1CCCNCC1
melting point: 116 to 118 °C

O=C(O)c1cnn2c(-c3ccccc3)ccnc12
melting point: 228 to 230 °C

Nc1ccccc1Cn1cccn1
melting point: 56 to 58 °C

O=c1occc2cccnc12
melting point: 157 to 159 °C

N#CCc1ccc(Oc2ccc(N)cn2)cc1
melting point: 67 to 69 °C

O=C(NC1CCNCC1)C1CCOCC1
melting point: 156 to 158 °C

O=C(O)CCNC(=O)c1ccc2[nH]nnc2c1
melting point: 229 to 231 °C

CCC(CC)(CNC(=O)OC(C)(C)C)C(=O)O
melting point: 130 to 132 °C

O=C(O)C(NC1CC1)c1ccc(O)cc1 (stereo not drawn)
melting point: 210 to 212 °C

O=[N+]([O-])CC(c1ccco1)c1c(-c2ccccc2)[nH]c2ccccc12 (stereo not drawn)
melting point: 127 to 129 °C

O=S(=O)(c1cccc(CO)c1)N1CCOCC1
melting point: 96 to 98 °C

CCOc1nc(Cl)ncc1Br
melting point: 72 to 74 °C

O=C1CC(c2cccc(F)c2)CN1 (stereo not drawn)
melting point: 77 to 79 °C

NC(=O)NCCCCC(=O)O
melting point: 178 to 180 °C

CCCNc1ccc(CN2CCN(C)CC2)cn1
melting point: 69 to 71 °C

O=C(O)/C=C/c1cccc(-c2ccccc2)c1
melting point: 195 to 197 °C

Nc1ccc(F)c(NC(=O)CCN2CCOCC2)c1
melting point: 119 to 121 °C

COCc1nc(Cl)cc(Cl)n1
melting point: 43 to 45 °C

CC1Cc2ccccc2N1C(=O)C1CCCCC1C(=O)O (stereo not drawn)
melting point: 123 to 125 °C

O=C(NCC(F)(F)F)c1ccc(S(=O)(=O)Cl)cc1
melting point: 139 to 141 °C

O=Cc1ccc(-n2cncn2)c(F)c1
melting point: 127 to 129 °C

Cc1ccc(C(=O)CC#N)s1
melting point: 105 to 107 °C

ClCc1coc(-c2ccc(Cl)cc2)n1
melting point: 91 to 93 °C

Cc1nc(-c2ccsc2)sc1C(=O)O
melting point: 235 to 237 °C

O=C(O)c1nccnc1C(=O)Nc1ccc(Cl)cc1
melting point: 178 to 180 °C

CC(=O)c1ccc(S(=O)(=O)N2CCOCC2)cc1
melting point: 161 to 163 °C

O=C(c1ccc(Br)o1)N1CCNCC1
melting point: 118 to 120 °C

CS(=O)(=O)Cc1c(C(=O)O)sc2ccccc12
melting point: 276 to 278 °C

O=Cc1csc(-c2ccc(Cl)cc2)n1
melting point: 124 to 126 °C

CCCn1cc(C(=O)O)c2ccccc21
melting point: 155 to 157 °C

ClCc1cn(-c2ccccc2)nc1-c1ccccc1
melting point: 87 to 89 °C

O=C(O)c1cccc(-c2ncn[nH]2)c1
melting point: 239 to 241 °C

Fc1ccc(-c2csc(Nc3ccccc3)n2)cc1
melting point: 91 to 93 °C

CC(C)(N)CCS(C)(=O)=O
melting point: 41 to 43 °C

COc1ccc(C)nc1N
melting point: 87 to 89 °C

Cn1c(C(=O)O)cc(Cl)c1Cl
melting point: 178 to 180 °C

O=C1Nc2ccc(S(=O)(=O)Cl)cc2C1(Cl)Cl
melting point: 134 to 136 °C

CCOc1cc2c(c3[nH]c(C(=O)O)cc13)OC(C)C2 (stereo not drawn)
melting point: 226 to 228 °C

Cc1cc(-c2cccc(F)c2)nnc1Cl
melting point: 132 to 134 °C

N=C(NN)c1cc(F)cc(F)c1
melting point: 101 to 103 °C

O=S(=O)(c1ccc2c(c1)NCC2)N1CCCC1
melting point: 181 to 183 °C

Nc1ccc(S)c(Cl)c1
melting point: 78 to 80 °C

Fc1ccc(Oc2ccc(Cl)nn2)c(F)c1
melting point: 113 to 115 °C

CC(C(=O)O)S(=O)(=O)Cc1cccc(Br)c1 (stereo not drawn)
melting point: 109 to 111 °C

Nc1ccc(C(=O)N2CCCC2c2ccccc2)cc1 (stereo not drawn)
melting point: 120 to 122 °C

Cc1cccnc1CC(=O)C(F)(F)F
melting point: 121 to 123 °C

CC1Oc2ccc(Cl)cc2NC1=O (stereo not drawn)
melting point: 171 to 173 °C

Nc1nnc(-c2ccc(Cl)cc2)o1
melting point: 260 to 262 °C

O=C(O)c1csc(-c2ccc(O)cc2)n1
melting point: 214 to 216 °C

CCCc1cc(=O)c2cc(Oc3ccccc3)ccc2[nH]1
melting point: 207 to 209 °C

Cc1ccccc1C1(C)NC(=O)NC1=O (stereo not drawn)
melting point: 169 to 171 °C

C=CC(=O)NC(=O)NC12CC3CC(CC(C3)C1)C2
melting point: 211 to 213 °C

c1cncc(NCc2ccsc2)c1
melting point: 62 to 64 °C

COCCOc1ccc(NC(=O)OCC(F)(F)F)cn1
melting point: 86 to 88 °C

Nc1nc(C2CC2)c(Cc2ccccc2F)s1
melting point: 114 to 116 °C

CC(=O)c1cccc(S(N)(=O)=O)c1
melting point: 143 to 145 °C

C=CCNC(=O)CN1CCNCC1
melting point: 63 to 65 °C

O=C(O)COc1ccc(Cl)c2cccnc12
melting point: 209 to 211 °C

O=C(O)c1ccc(Br)cc1I
melting point: 170 to 172 °C

Cn1cnnc1-c1cncc(O)c1
melting point: 266 to 268 °C

O=C(CCl)c1ccc2c(c1)CCCN2C(=O)c1ccccc1
melting point: 178 to 180 °C

CNCC(=O)N1CCN(C(=O)OC(C)(C)C)CC1
melting point: 64 to 66 °C

CNS(=O)(=O)CBr
melting point: 64 to 66 °C

COc1ccc(-c2nn(CCC#N)cc2/C=C(/C#N)C(=O)O)cc1
melting point: 212 to 214 °C

Cc1[nH]c2ccccc2c1-c1csc(N)n1
melting point: 168 to 170 °C

Cc1ccc(OC(C)C(=O)O)cc1 (stereo not drawn)
melting point: 101 to 103 °C

CCC(C)(C)NC(=O)C(Br)C(C)C (stereo not drawn)
melting point: 132 to 134 °C

CC(C#N)Oc1cc(F)ccc1N (stereo not drawn)
melting point: 89 to 91 °C

Nc1ccc(-c2cccc(C(F)(F)F)c2)cc1
melting point: 65 to 67 °C

CC(=O)N(C)CC(=O)O
melting point: 137 to 139 °C

COc1ccc(-c2noc(CCC(=O)O)n2)cc1
melting point: 141 to 143 °C

NC(=S)N1CCN(c2ccc(Cl)cc2)CC1
melting point: 176 to 178 °C

COC(=O)CN1Cc2ccccc2C1=O
melting point: 114 to 116 °C

COc1cc(F)cc(F)c1S(=O)(=O)Cl
melting point: 75 to 77 °C

Nc1ccccc1C(=O)NCC(F)(F)F
melting point: 125 to 130 °C

CC(O)c1ccc(Oc2ccc(Br)cc2)cc1 (stereo not drawn)
melting point: 67 to 69 °C

O=C(O)c1cc(-c2ccccc2F)nc2onc(C3CC3)c12
melting point: 182 to 184 °C

O=Cc1c(O)ccc([N+](=O)[O-])c1Cl
melting point: 118 to 120 °C

COC(=O)Nc1cccc(C(=O)O)c1
melting point: 229 to 231 °C

CC(=O)c1c[nH]cc1-c1ccccc1
melting point: 156 to 158 °C

CSc1nn(C)c(N)c1C#N
melting point: 123 to 125 °C
